We go through 25 compounds from US10576062B2, “Carbamoyloxymethyl triazole cyclohexyl acids as LPA antagonists” (Bristol-Myers Squibb Company, priority 2016, dated 2020).

Molecules are shown by their SMILES. Read-outs that look alike come from different tables or passages of the source.

The target of this assay is T1, human LPA1 (Homo sapiens, UniProt Q92633).
T1 construct: expressed in transfected cells; host or cells: Chinese hamster ovary (CHO) cells
The assay is described as follows: LPA1 functional antagonist assay (LPA-induced calcium flux). It counts as cell-based. The following applies: read-out: hLPA1 IC50. In outline: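 CHO cells overexpressing human LPA1, loaded with calcium dye 30 min at 37° C, were preincubated 20 min at room temperature with compound (0.08 nM–5 μM, 0.5% DMSO) in HBSS/20 mM HEPES/0.1% fatty acid-free BSA.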
For orientation: A change in cytosolic calcium serves as a functional read-out for many receptors and channels.

Where [1] appears, read: CHO cells overexpressing human LPA1, inhibition of calcium flux induced by 10 nM LPA.

T1 sequence (Q92633 whole entry): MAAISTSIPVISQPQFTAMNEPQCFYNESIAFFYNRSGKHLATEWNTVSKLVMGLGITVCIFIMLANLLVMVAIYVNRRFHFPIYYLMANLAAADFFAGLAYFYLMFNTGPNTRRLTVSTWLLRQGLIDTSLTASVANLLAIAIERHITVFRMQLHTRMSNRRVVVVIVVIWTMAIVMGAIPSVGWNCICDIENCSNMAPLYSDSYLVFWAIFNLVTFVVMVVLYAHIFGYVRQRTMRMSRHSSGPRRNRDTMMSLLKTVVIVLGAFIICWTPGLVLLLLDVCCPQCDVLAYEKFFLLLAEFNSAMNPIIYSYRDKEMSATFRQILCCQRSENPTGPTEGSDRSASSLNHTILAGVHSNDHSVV

For orientation: IC50 means the point on the concentration scale where inhibition reaches its midpoint. With `CN(C(=O)OCc1c(-c2ccc(O[C@H]3CCC[C@H](C(=O)O)C3)cn2)nnn1C)C1CCCC1` [Example 2, (1S,3S)-3-((6-(5-(((cyclopentyl(methyl)carbamoyl)oxy)methyl)-1-methyl-1H-1,2,3-triazol-4-yl)pyridin-3-yl)oxy)cyclohexane-1-carboxylic Acid], under setting [1], the half-maximal inhibitory concentration (IC50) came out at 0.019 µM.
Regarding `CCCN(C)C(=O)OCc1c(-c2ccc(O[C@H]3CCC[C@H](C(=O)O)C3)c(C)n2)nnn1C` [Example 104, (1S,3S)-3-((2-methyl-6-(1-methyl-5-(((methyl(propyl)carbamoyl)oxy)methyl)-1H-1,2,3-triazol-4-yl)pyridin-3-yl)oxy)cyclohexane-1-carboxylic acid], the IC50 came out at 0.019 µM.
Consider `CN(CC1CC1)C(=O)OCc1c(-c2ccc(O[C@H]3CCC[C@H](C(=O)O)C3)c(C(F)F)n2)nnn1C` [Example 279, (1S,3S)-3-((6-(5-((((cyclopropylmethyl)(methyl)carbamoyl)oxy)methyl)-1-methyl-1H-1,2,3-triazol-4-yl)-2-(difluoromethyl)pyridin-3-yl)oxy)cyclohexane-1-carboxylic acid], for which the IC50 under setting [1] amounted to 0.021 µM.
`Cc1nc(-c2nnn(C)c2COC(=O)N(C)CCC(C)C)ccc1O[C@H]1CCC[C@H](C(=O)O)C1` [Example 34, (1S,3S)-3-((6-(5-(((isopentyl(methyl)carbamoyl)oxy)methyl)-1-methyl-1H-1,2,3-triazol-4-yl)-2-methylpyridin-3-yl)oxy)cyclohexane-1-carboxylic acid]: the IC50 is 0.016 µM.
Still for that read-out and setting: under `CN(CC1CCC1)C(=O)OCc1c(-c2ccc(O[C@H]3CCC[C@H](C(=O)O)C3)cn2)nnn1C` [Example 23, (1S,3S)-3-((6-(5-((((cyclobutylmethyl)(methyl)carbamoyl)oxy)methyl)-1-methyl-1H-1,2,3-triazol-4-yl)pyridin-3-yl)oxy)cyclohexane-1-carboxylic acid] stands 0.012 µM; under `[2H]C([2H])([2H])n1nnc(-c2ccc(O[C@H]3CCC[C@H](C(=O)O)C3)cn2)c1COC(=O)N(C)CC1CCC1` [Example 82, (1S,3S)-3-((6-(5-((((cyclobutylmethyl)(methyl)carbamoyl)oxy)methyl)-1-(methyl-d3)-1H-1,2,3-triazol-4-yl)pyridin-3-yl)oxy)cyclohexane-1-carboxylic acid], 0.028 µM; under `Cc1nc(-c2nnn(C)c2COC(=O)N(C)Cc2ccccc2F)ccc1O[C@H]1CCC[C@H](C(=O)O)C1` [Example 98, (1S,3S)-3-((6-(5-((((2-fluorobenzyl)(methyl)carbamoyl)oxy)methyl)-1-methyl-1H-1,2,3-triazol-4-yl)-2-methylpyridin-3-yl)oxy)cyclohexane-1-carboxylic acid], 0.019 µM.
Regarding `Cc1nc(-c2nnn(C)c2COC(=O)N(C)CC2(F)CCC2)cnc1O[C@H]1CCC[C@H](C(=O)O)C1` [Example 233, (1S,3S)-3-((5-(5-(((((1-fluoro-cyclobutyl)methyl)(methyl)carbamoyl)oxy)methyl)-1-methyl-1H-1,2,3-triazol-4-yl)-3-methylpyrazin-2-yl)oxy)cyclohexane-1-carboxylic acid], under setting [1], the IC50 was determined as 0.122 µM.
On to `CN(CC1CCC1)C(=O)OCc1c(-c2ccc(O[C@H]3CCC[C@H](C(=O)O)C3)c(F)c2)nnn1C` [Example 27, (1S,3S)-3-(4-(5-((((cyclobutylmethyl)(methyl)carbamoyl)oxy)methyl)-1-methyl-1H-1,2,3-triazol-4-yl)-2-fluorophenoxy)cyclohexane-1-carboxylic acid], for which the IC50 came to 0.014 µM.
The same measure, in the same setting: for `C[C@H](C1CC1)N(C)C(=O)OCc1c(-c2ccc(O[C@H]3CCC[C@H](C(=O)O)C3)c(F)c2)nnn1C` [Example 70, (1S,3S)-3-(4-(5-(((((R)-1-cyclopropylethyl)(methyl)carbamoyl)oxy)methyl)-1-methyl-1H-1,2,3-triazol-4-yl)-2-fluorophenoxy)cyclohexane-1-carboxylic acid] the value was 0.01 µM.
On the same count and under the same terms, under `Cc1nc(-c2nnn(C)c2COC(=O)N(C)C2(C)CC(C)C2)ccc1O[C@H]1CCC[C@H](C(=O)O)C1` (single isomer, unassigned) [Example 106] stands 0.067 µM.
As for `Cc1nc(-c2nnn(C)c2COC(=O)N(C)CCC(C)F)ccc1O[C@H]1CCC[C@H](C(=O)O)C1` (stereo partly drawn) [Example 260, (1S,3 S)-3-((6-(5-((((3-fluorobutyl)(methyl)carbamoyl)oxy)methyl)-1-methyl-1H-1,2,3-triazol-4-yl)-2-methylpyridin-3-yl)oxy)cyclohexane-1-carboxylic Acid], the IC50 under setting [1] worked out at 0.05 µM.
As for `CN(CC1CC1)C(=O)OCc1c(-c2ccc(O[C@H]3CCC[C@H](C(=O)O)C3)c(C#N)n2)nnn1C` [Example 289, (1S,3S)-3-((2-cyano-6-(5-((((cyclopropylmethyl)(methyl)carbamoyl)oxy)methyl)-1-methyl-1H-1,2,3-triazol-4-yl)pyridin-3-yl)oxy)cyclohexane-1-carboxylic acid], the half-inhibitory concentration (IC50) under setting [1] turned out to be 0.04 µM.
Same read-out and setting: under `CCc1nc(-c2nnn(C)c2COC(=O)N2CC(C)(C)C2)ccc1O[C@H]1CCC[C@H](C(=O)O)C1` [Example 204, (1S,3S)-3-((6-(5-(((3,3-dimethylazetidine-1-carbonyl)oxy)methyl)-1-methyl-1H-1,2,3-triazol-4-yl)-2-ethylpyridin-3-yl)oxy)cyclohexane-1-carboxylic acid] stands 0.102 µM.
Regarding `C[C@H](C1CC1)N(C)C(=O)OCc1c(-c2ccc(O[C@H]3CCC[C@H](C(=O)O)C3)cn2)nnn1C` [Example 25, (1S,3S)-3-((6-(5-(((((R)-1-cyclopropylethyl)(methyl)carbamoyl)oxy)methyl)-1-methyl-1H-1,2,3-triazol-4-yl)pyridin-3-yl)oxy)cyclohexane-1-carboxylic acid], the IC50 was found to be 0.02 µM.
For `Cc1nc(-c2nnn(C)c2COC(=O)N(C)CCCF)cnc1O[C@H]1CCC[C@H](C(=O)O)C1` [Example 230, (1S,3S)-3-((5-(5-((((3-fluoropropyl)(methyl)carbamoyl)oxy)methyl)-1-methyl-1H-1,2,3-triazol-4-yl)-3-methylpyrazin-2-yl)oxy)cyclohexane-1-carboxylic acid], under setting [1], the half-maximal inhibitory concentration (IC50) was 0.39 µM.
For the compound `CCCN(C)C(=O)OCc1c(-c2ccc(O[C@@H]3CCC[C@@H](C(=O)O)C3)c(C)n2)nnn1C` [Example 193, (1R,3R)-3-((2-methyl-6-(1-methyl-5-(((methyl(propyl)carbamoyl)oxy)methyl)-1H-1,2,3-triazol-4-yl)pyridin-3-yl)oxy)cyclohexane-1-carboxylic acid], for the setting “human LPA1”, the concentration for half-maximal inhibition (IC50) is 1.7 µM.
Regarding `CCC(C)N(C)C(=O)OCc1c(-c2ccc(O[C@H]3CCC[C@H](C(=O)O)C3)cc2)nnn1C` (mixture of isomers) [Example 68, (trans)-3-(4-(5-(((sec-butyl(methyl)carbamoyl)oxy)methyl)-1-methyl-1H-1,2,3-triazol-4-yl)phenoxy)cyclohexane-1-carboxylic acid], the IC50 is 0.32 µM.
On the same count and under the same terms, under `Cc1nc(-c2nnn(C)c2COC(=O)N(C)C2(CC(C)C)CC2)ccc1O[C@H]1CCC[C@H](C(=O)O)C1` [Example 130, (1S,3S)-3-((6-(5-((((1-isobutylcyclopropyl)(methyl)carbamoyl)oxy)methyl)-1-methyl-1H-1,2,3-triazol-4-yl)-2-methylpyridin-3-yl)oxy)cyclohexane-1-carboxylic acid] stands 0.243 µM.
The same measure, in the same setting: under `CCC(CC)N(C)C(=O)OCc1c(-c2ccc(O[C@H]3CCC[C@H](C(=O)O)C3)cc2)nnn1C` [Example 76, (1S,3S)-3-(4-(1-methyl-5-(((methyl(pentan-3-yl)carbamoyl)oxy)methyl)-1H-1,2,3-triazol-4-yl)phenoxy)cyclohexane-1-carboxylic acid] stands 0.047 µM.
Turning to `Cc1nc(-c2nnn(C)c2COC(=O)N2CCC(C(C)C)C2)ccc1O[C@H]1CCC[C@H](C(=O)O)C1` (mixture of isomers) [Example 163, (1S,3S)-3-((6-(5-(((3-isopropylpyrrolidine-1-carbonyl)oxy)methyl)-1-methyl-1H-1,2,3-triazol-4-yl)-2-methylpyridin-3-yl)oxy)cyclohexane-1-carboxylic acid], where the note is “human LPA1”, the half-inhibitory concentration (IC50) was determined as 0.104 µM.
Take `CCCOCCN(C)C(=O)OCc1c(-c2ccc(O[C@H]3CCC[C@H](C(=O)O)C3)c(C)n2)nnn1C` [Example 250, (1S,3S)-3-((2-methyl-6-(1-methyl-5-(((methyl(2-propoxyethyl)carbamoyl)oxy)methyl)-1H-1,2,3-triazol-4-yl)pyridin-3-yl)oxy)cyclohexane-1-carboxylic acid]: under setting [1], the concentration for half-maximal inhibition (IC50) was found to be 0.314 µM.
The same measure, in the same setting: for `Cc1nc(-c2nnn(C)c2COC(=O)N(C)CC2CCC2)ccc1O[C@H]1CCC[C@](F)(C(=O)O)C1` (racemic) [Example 11, (rac)-3-((6-(5-((((cyclobutylmethyl)(methyl)carbamoyl)oxy)methyl)-1-methyl-1H-1,2,3-triazol-4-yl)-2-methylpyridin-3-yl)oxy)-1-fluorocyclohexane-1-carboxylic Acid] the value was 0.012 µM.
Regarding `CCCC1(N(C)C(=O)OCc2c(-c3ccc(O[C@H]4CCC[C@H](C(=O)O)C4)c(C)n3)nnn2C)CC1` [Example 87, (1S,3S)-3-((2-methyl-6-(1-methyl-5-(((methyl(1-propylcyclopropyl)carbamoyl)oxy)methyl)-1H-1,2,3-triazol-4-yl)pyridin-3-yl)oxy)cyclohexane-1-carboxylic acid], the half-maximal inhibitory concentration (IC50) was found to be 0.036 µM.
On the same count and under the same terms, under `[2H]C([2H])([2H])n1nnc(-c2ccc(O[C@H]3CCC[C@H](C(=O)O)C3)cn2)c1COC(=O)N(C)C1CCCC1` [Example 111, (1S,3S)-3-((6-(5-(((cyclopentyl(methyl)carbamoyl)oxy)methyl)-1-(methyl-d3)-1H-1,2,3-triazol-4-yl)pyridin-3-yl)oxy)cyclohexane-1-carboxylic acid] stands 0.023 µM.
